In patent publication US9695119B2, “Methionine analogs and methods of using same” (Bioxiness Pharmaceuticals, Inc., priority 2008, dated 2017):
Where two headings read alike, the source gives them in different places.

What was measured:
[1] = test system: CV-1 (African Green Monkey Kidney Cells) cells; conditions: 60 min, pH 7
Description: Preliminary studies of cytotoxicity were performed in a mammalian cell viability assay.
CV-1 cells were propagated in DMEM plus 8% FBS according to supplier's recommendations. CV-1 cells were seeded at 1.5×10^4 cells per well in 96-well plates and incubated overnight at 37° C. On the day of testing, growth medium was aspirated from each well, and 20 μl fresh medium was added per well. Test articles were diluted from 50 mM to 0.05 mM by 2-fold serial dilution using PBS at pH 7.0 for each test article. After which 80 μl of each dilution was added to each well for a total volume of 100 μl per well. Following 60 minutes exposure at 37° C., test articles were aspirated and replaced with fresh 100 μl tissue culture media and incubated for 24 hours at 37° C. Next day cell culture media was removed and cell viability was determined by addition of WST-8 (Dojindo, Japan) reagent and the absorption at 450 nm read spectrophotometrically. Orange-red formazan, which is produced by live cells, is a direct measure of cell viability in this assay.
(§1) Results are expressed as percentage of cells surviving the treatment as compared to PBS.

E. coli (DH5-α) = assay: MBC spot inoculation onto gridded agar plate (growth or no growth); format: cell-based; conditions: spot inoculation from well 12, 11 and 10
Description: MBC was determined by plating 5 μL of each sample onto a gridded agar plate (see, for example, FIG. 1B). Plates were then incubated overnight at 37° C., and examined for growth or no growth. The concentration at which there was a complete absence of colony growth was determined to be the MBC. For FIGS. 1A and 1B, the 96-well plate format was used to culture E. coli (DH5-α) cells in M9 minimal media supplemented with glucose (M9) or same media supplemented with a range of concentrations of various analogs. Experiments were carried out in duplicate.

E. coli = assay: Broad spectrum bacterial growth inhibition, 96-well plate, M9 media; format: cell-based; set-up: unit not given here
Description: (§2) Table 2 and FIG. 2 summarizes a series of studies, which were performed to test eradication of bacterial growth using various species (representative strains of gram positive and gram negative microorganisms commonly associated with wound infection). A 96-well plate format was used to culture different bacteria in M9 minimal media supplemented with glucose (M9) or same media supplemented with a range of concentrations of various analogues (Methionine, I-AA and I-AB). Experiments were carried out in duplicate.

B. subtillus = assay: as above; format: cell-based; set-up: unit not given here
Description: as §2

P. aeruginosa = assay: as above; format: cell-based; set-up: unit not given here
Description: as §2

[2] = test system: test bacteria (gram positive and gram negative microorganisms commonly associated with wound infection); assay: Broad spectrum bacterial growth inhibition, all test species together; format: cell-based; conditions: different bacteria in M9 minimal media
Description: as §2

L929 cells = conditions: mouse, 60 min
Description: Cytotoxicity is assessed by a colorimetric assay system (Sagripanti J-L, Bonifacino A. Cytotoxicity of Liquid Disinfectants. Surgical Infections, 2000; 1(1): 3-14, the content of which is hereby incorporated by reference, particularly with respect to the experimental methods described therein), using 3′-(phenylamino-carbonyl)-3,4-tetrazo-lium-bis(4-methoxy-6-nitro) benzene sulfonic acid hydrate (XTT), ProCheck™ cell viability assay (Evaluation of a soluble tetrazolium/formazan assay for cell growth and drug sensitivity in culture using human and other tumor cell lines described by Scudiero D A, Shoemaker R A H, Paul K D, Monks A, Tierney S, Nofziger T H, Currens M J, Seniff D, Boyd M R. Cancer Res. 1988 Sep. 1; 48(17):4827-33, the content of which is hereby incorporated by reference, particularly with respect to the experimental methods described therein). Similar approaches for determining the cell viability are used by other investigators. Three cell types are used: […] (L929), primary human skin fibroblast and primary human keratinocyte cells cultured in Dulbecco Modified Eagle's Medium and Keratinocyte defined medium with corresponding growth factors plus antibiotics. Cells are trypsinized and counted under the microscope and seeded at 1000-to-2000 cells per well of a flat-bottom 96-well plate. Cells are allowed to grow overnight at 37° C. Tissue culture media is removed the following day and cells are rinsed with fresh media 1× and then left in 50 μL of tissue culture media. Test articles are prepared as 2-fold dilutions and 200 μL is added into each set of 4-wells (total volume per well is 250 μL). Cells are exposed to test articles for 60 min at room temperature. Immediately after the exposed time, test article from each well is removed and cells are fed with 250 μL of fresh media. Plates are incubated at 37° C. for 18-20 hr. The following day media is removed again and replaced with 100 μL/well of fresh media containing 10/100 μL XTT-reagent. Cells are incubated under growth conditions (5% CO2 at 37° C. humidified incubator), protected from light, until color development is achieved. Absorbance is read at 450 nm with reference wavelength at 750 nm using Molecular Device ThermoMax Plate reader, blanking the plate on the medium-only assay blank wells. Untreated cells receiving XTT reagents-only serve as positive cell proliferation control.
as §1

For `CSCC[C@H](NC(=O)CN)C(=O)NO.Cl` [I-AB, (S)-2-(2-aminoacetamido)-N-hydroxy-4-(methylthio)butanamide hydrochloride], the “Percentage of Surviving CV-1 cells relative to PBS” value ([1]; 0.1 mM) was 97%, the “Percentage of Surviving CV-1 cells relative to PBS” value ([1]; 0.2 mM) was 94% and the “Percentage of Surviving CV-1 cells relative to PBS” value ([1]; 0.39 mM) was 97%. For the same compound, the “Percentage of Surviving CV-1 cells relative to PBS” value ([1]; 0.78 mM) was 97%, the “Percentage of Surviving CV-1 cells relative to PBS” value ([1]; 1.56 mM) was 98% and the “Percentage of Surviving CV-1 cells relative to PBS” value ([1]; 3.13 mM) was 100%. The “Percentage of Surviving CV-1 cells relative to PBS” value ([1]; 6.25 mM) was 100%, the “Percentage of Surviving CV-1 cells relative to PBS” value ([1]; 12.5 mM) was 101% and the “Percentage of Surviving CV-1 cells relative to PBS” value ([1]; 25 mM) was 100%. For the same compound, the “Percentage of Surviving CV-1 cells relative to PBS” value ([1]; 50 mM) was 60%, the “Re-growth after spot inoculation on agar plate” value (E. coli (DH5-α)) was “absence of re-growth” and the “Broad Spectrum Bacterial Growth Inhibition Data, E. coli” value (E. coli; Conc. 0.0, well 4, M9 media) was 0.4. For the same compound, the “Broad Spectrum Bacterial Growth Inhibition Data, E. coli” value (E. coli; Conc. 0.1, well 5, M9 media) was 0.4, the “Broad Spectrum Bacterial Growth Inhibition Data, E. coli” value (E. coli; Conc. 0.2, well 6, M9 media) was 0.4 and the “Broad Spectrum Bacterial Growth Inhibition Data, E. coli” value (E. coli; Conc. 0.4, well 7, M9 media) was 0.4. The “Broad Spectrum Bacterial Growth Inhibition Data, E. coli” value (E. coli; Conc. 0.8, well 8, M9 media) was 0.5, the “Broad Spectrum Bacterial Growth Inhibition Data, E. coli” value (E. coli; Conc. 1.6, well 9, M9 media) was 0.4 and the “Broad Spectrum Bacterial Growth Inhibition Data, E. coli” value (E. coli; Conc. 3.1, well 10, M9 media) was 0.2. The “Broad Spectrum Bacterial Growth Inhibition Data, E. coli” value (E. coli; Conc. 6.3, well 11, M9 media) was 0.2, the “Broad Spectrum Bacterial Growth Inhibition Data, E. coli” value (E. coli; Conc. 12.5, well 12, M9 media) was 0.2 and the “Broad Spectrum Bacterial Growth Inhibition Data, B. subtillus” value (B. subtillus; Conc. 0.0, well 4, M9 media) was 0.5. For the same compound, the “Broad Spectrum Bacterial Growth Inhibition Data, B. subtillus” value (B. subtillus; Conc. 0.1, well 5, M9 media) was 0.5, the “Broad Spectrum Bacterial Growth Inhibition Data, B. subtillus” value (B. subtillus; Conc. 0.2, well 6, M9 media) was 0.4 and the “Broad Spectrum Bacterial Growth Inhibition Data, B. subtillus” value (B. subtillus; Conc. 0.4, well 7, M9 media) was 0.4. For the same compound, the “Broad Spectrum Bacterial Growth Inhibition Data, B. subtillus” value (B. subtillus; Conc. 0.8, well 8, M9 media) was 0.2, the “Broad Spectrum Bacterial Growth Inhibition Data, B. subtillus” value (B. subtillus; Conc. 1.6, well 9, M9 media) was 0.2 and the “Broad Spectrum Bacterial Growth Inhibition Data, B. subtillus” value (B. subtillus; Conc. 3.1, well 10, M9 media) was 0.2. For the same compound, the “Broad Spectrum Bacterial Growth Inhibition Data, B. subtillus” value (B. subtillus; Conc. 6.3, well 11, M9 media) was 0.2, the “Broad Spectrum Bacterial Growth Inhibition Data, B. subtillus” value (B. subtillus; Conc. 12.5, well 12, M9 media) was 0.2 and the “Broad Spectrum Bacterial Growth Inhibition Data, P. aeruginosa” value (P. aeruginosa; Conc. 0.0, well 4, M9 media) was 1.1. For the same compound, the “Broad Spectrum Bacterial Growth Inhibition Data, P. aeruginosa” value (P. aeruginosa; Conc. 0.1, well 5, M9 media) was 1.0, the “Broad Spectrum Bacterial Growth Inhibition Data, P. aeruginosa” value (P. aeruginosa; Conc. 0.2, well 6, M9 media) was 1.0 and the “Broad Spectrum Bacterial Growth Inhibition Data, P. aeruginosa” value (P. aeruginosa; Conc. 0.4, well 7, M9 media) was 1.0. For the same compound, the “Broad Spectrum Bacterial Growth Inhibition Data, P. aeruginosa” value (P. aeruginosa; Conc. 0.8, well 8, M9 media) was 1.0, the “Broad Spectrum Bacterial Growth Inhibition Data, P. aeruginosa” value (P. aeruginosa; Conc. 1.6, well 9, M9 media) was 1.0 and the “Broad Spectrum Bacterial Growth Inhibition Data, P. aeruginosa” value (P. aeruginosa; Conc. 3.1, well 10, M9 media) was 1.0. The “Broad Spectrum Bacterial Growth Inhibition Data, P. aeruginosa” value (P. aeruginosa; Conc. 6.3, well 11, M9 media) was 0.1, the “Broad Spectrum Bacterial Growth Inhibition Data, P. aeruginosa” value (P. aeruginosa; Conc. 12.5, well 12, M9 media) was 0.1 and the “Concentration dependence of bacterial growth inhibition” value [2] was “concentration-dependent”. The “Time within which most bacteria were killed” value [2] was at most 24 h, the “Percentage of Surviving L929 cells relative to control” value (L929 cells; 0.1 mM) was 99% and the “Percentage of Surviving L929 cells relative to control” value (L929 cells; 0.2 mM) was 92%. For the same compound, the “Percentage of Surviving L929 cells relative to control” value (L929 cells; 0.39 mM) was 88%, the “Percentage of Surviving L929 cells relative to control” value (L929 cells; 0.78 mM) was 90% and the “Percentage of Surviving L929 cells relative to control” value (L929 cells; 1.56 mM) was 89%. For the same compound, the “Percentage of Surviving L929 cells relative to control” value (L929 cells; 3.13 mM) was 86%, the “Percentage of Surviving L929 cells relative to control” value (L929 cells; 6.25 mM) was 88% and the “Percentage of Surviving L929 cells relative to control” value (L929 cells; 12.5 mM) was 89%. For the same compound, the “Percentage of Surviving L929 cells relative to control” value (L929 cells; 25 mM) was 92% and the “Percentage of Surviving L929 cells relative to control” value (L929 cells; 50 mM) was 75%.
